This is an account of results in patent publication US20240247253A1, “PRODUCTION METHOD OF POLYPEPTIDE, TAG, EXPRESSION VECTOR, EVALUATION METHOD OF POLYPEPTIDE, PRODUCTION METHOD OF NUCLEIC ACID DISPLAY LIBRARY, AND SCREENING METHOD” (FUJIFILM Corporation, priority 2021, published 2024).

For assay [1], the system named is cell-free peptide synthesis system derived from Escherichia coli. Description: Cell-free biosynthesis of the integrin binding peptide fusion protein with N-terminal tag, 1 hour reaction, amount measured by ELISA. To be noted: relative value, control example without tag = 1; fusion protein SEQ ID NO: 5; 37° C. for 1 hour; average of two measurements. The format is biochemical. The source says: In the cell-free peptide synthesis system derived from Escherichia coli, the effect of the VKKX tag on the biosynthesis amount of the polypeptide was examined. As a polypeptide to be biosynthesized, an integrin binding peptide containing cysteine and chloroacetyl lysine was selected. In this polypeptide, a thiol group of cysteine and a chloroacetyl group of chloroacetyl lysine spontaneously form a thioether bond to become a cyclic polypeptide.
A fusion protein in which an integrin binding peptide, a Myc tag, and a HiBiT tag were linked in this order was designed. As a spacer, Gly-Gly-Ser was inserted between the integrin binding peptide and the Myc tag and between the Myc tag and the HiBiT tag. The amino acid sequence of this fusion protein is SEQ ID NO: 5, and the base sequence encoding this fusion protein is SEQ ID NO: 6. In SEQ ID NO: 5, the integrin binding peptide ranges to the amino acid at the twelfth position (that is, alanine) from an N-terminal, and the amino acid at eleventh position from the N-terminal is chloroacetyl lysine. The triplet TAG at the positions 31 to 33 from the 5′ terminal of the base sequence set forth in SEQ ID NO: 6 was assigned to the codon of chloroacetyl lysine. The end of the base sequence set forth in SEQ ID NO: 6 is the stop codon TAA.
A base sequence encoding a tagged fusion protein in which methionine, a VKKX tag (any of SEQ ID nOs: 7 to 52), and a fusion protein (SEQ ID NO: 5) were linked in this order was designed. In this base sequence, a base sequence (any of SEQ ID nOs: 53 to 98) encoding a VKKX tag is arranged immediately after the start codon ATG, and a base sequence encoding a fusion protein immediately after the base sequence (SEQ ID NO: 6) encoding the VKKX tag is arranged.
As a control example for evaluating the effect of the VKKX tag, a base sequence in which a base sequence (SEQ ID NO: 6) encoding a fusion protein arranged immediately after the start codon ATG was designed.
In order to translate chloroacetyl lysine which is an unnatural amino acid, a tRNA in which the anticodon was CUA and paired with the UAG codon of mRNA was prepared. This tRNA was aminoacylated with an N-chloroacetyl lysine hosphoro 2′ deoxyribocytidylylriboadenosine (pdCpA) ester. This aminoacyl tRNA is referred to as an Aminoacyl tRNA (1).
(§1) The cell-free biosynthesis of the polypeptide was carried out in a translation solution containing a template DNA, PUREfrex 2.0 (GeneFrontier, PF201-0.25-5), and Aminoacyl tRNA (1). 1.25 μL (62.5 ng) of the template DNA prepared to 50 ng/μL, 2.5 μL of PUREfrex 2.0 Solution I, 0.25 μL of Solution II, 0.5 μL of Solution III, and 0.5 μL of Aminoacyl tRNA (1) were mixed and mixture was subjected to a reaction at 37° ° C. for 1 hour.
The amount of the biosynthesized polypeptide was measured by ELISA. 50 ng of Recombinant Human Integrin αVβ3 (R&D systems, 3050-AV-050) was immobilized in each well of a 96-well plate and blocked with Blocker Casein in PBS (Thermo, 37528), and then a cell-free biosynthesis solution diluted with Can Get Signal Immunoreaction Enhancer Solution I (TOYOBO, NKB-101) containing 5 mmol/L MgCl2 was added thereto, and the mixture was subjected to a reaction at room temperature for 3 hours. After washing with 5 mmol/L MgCl2/0.05% Tween 20-containing phosphate buffered saline (PBS), an anti-Myc antibody (Cell Signaling, 14038S) diluted with Can Get Signal Immunoreaction Enhancer Solution II (TOYOBO, NKB-101) was added thereto, and the mixture was subjected to a reaction at room temperature for 2 hours. After washing with PBS containing 5 mmol/L MgCl2/0.05% Tween 20, Super Signal ELISA Femto Substrate (Thermo, 37075) was added thereto, and the luminescence was measured. The amount of the fusion protein in the cell-free biosynthesis solution was calculated based on a calibration curve created from the fusion protein having a known concentration. The luminescence measurement was performed twice, and the average value of the amounts of the fusion protein was calculated. […]
On the technique in general: In an ELISA, binding on a coated surface is turned into a signal by an enzyme label.

For assay [2] the test system is unchanged. Description: Cell-free biosynthesis of the integrin binding peptide fusion protein with tag, reaction time 10 minutes, ELISA. The format is biochemical. The settings on record: relative value, control without tag = 1; reaction time 10 minutes; fusion protein SEQ ID NO: 5; SKIK encoded by SEQ ID NO: 110. How it is done: as §1
The amount of the biosynthesized polypeptide was measured by ELISA. 50 ng of Recombinant Human Integrin αVβ3 (R&D systems, 3050-AV-050) was immobilized in each well of a 96-well plate and blocked with Blocker Casein in PBS (Thermo, 37528), and then a cell-free biosynthesis solution diluted with Can Get Signal Immunoreaction Enhancer Solution I (TOYOBO, NKB-101) containing 5 mmol/L MgCl2 was added thereto, and the mixture was subjected to a reaction at room temperature for 3 hours. After washing with 5 mmol/L MgCl2/0.05% Tween 20-containing phosphate buffered saline (PBS), an anti-Myc antibody (Cell Signaling, 14038S) diluted with Can Get Signal Immunoreaction Enhancer Solution II (TOYOBO, NKB-101) was added thereto, and the mixture was subjected to a reaction at room temperature for 2 hours. After washing with PBS containing 5 mmol/L MgCl2/0.05% Tween 20, Super Signal ELISA Femto Substrate (Thermo, 37075) was added thereto, and the luminescence was measured. The amount of the fusion protein in the cell-free biosynthesis solution was calculated based on a calibration curve created from the fusion protein having a known concentration. The luminescence measurement was performed twice, and the average value of the amounts of the fusion protein was calculated. Table 2-1 and Table 2-2 show relative values of the biosynthesis amounts of respective fusion proteins in a case where the amount of the fusion protein of the control example was set to the reference value 1.
As a comparative control, a SKIK tag represented by SEQ ID NO: 107 was selected. The polypeptide to be biosynthesized is the fusion protein containing the integrin binding peptide, as in Example 1.
Using a template DNA including DNA sequences (SEQ ID NOs: 73 to 98) encoding VKKX tags represented by SEQ ID NOs: 27 to 52 produced in Example 1, and a DNA sequence (SEQ ID NO: 110) encoding a SKIK tag represented by SEQ ID NO: 107 produced in Example 2, the biosynthesis reaction was performed in the same manner as in Example 1 by setting the reaction time to 10 minutes. In the same manner in Example 1, the fusion protein was expressed by the cell-free peptide synthesis system and quantified by ELISA. The measurement was performed twice, and the average value of the amounts of the fusion protein was calculated. […] As control example used in Example 1, the control example of the reference value 1 has a form in which the base sequence (SEQ ID NO: 6) encoding the fusion protein is arranged immediately after the start codon ATG.

In the case of “SEQ ID NO: 49: VKKX tag, amino acid sequence VKKTKTKTTK (VKKX Tag)”, the “Biosynthesis amount of fusion protein” value was 7.44 in assay [1] and 8.75 in assay [2].

On to “SEQ ID NO: 16: VKKX tag, amino acid sequence VKKL (VKKX Tag)”, for which, in assay [1], the “Biosynthesis amount of fusion protein” value was found to be 2.71. For “SEQ ID NO: 33: VKKX tag, amino acid sequence VKKTKTTK (VKKX Tag)”, the figures for the “Biosynthesis amount of fusion protein” value in assay [1] and in assay [2] were 6.54 and 8.17, respectively.

As for “SEQ ID NO: 38: VKKX tag, amino acid sequence VKKTKTKTK (VKKX Tag)”, the results for the “Biosynthesis amount of fusion protein” value in assay [1] and in assay [2] were 8.42 and 16.95, respectively. Consider “SEQ ID NO: 36: VKKX tag, amino acid sequence VKKTKTKKT (VKKX Tag)”, for which the “Biosynthesis amount of fusion protein” value was determined as 10.50 in assay [1] and 13.13 in assay [2].

Regarding “SEQ ID NO: 7: VKKX tag, amino acid sequence VKKI (VKKX Tag)”, the “Biosynthesis amount of fusion protein” value in assay [1] turned out to be 4.40. “SEQ ID NO: 20: VKKX tag, amino acid sequence VKKD (VKKX Tag)”: the “Biosynthesis amount of fusion protein” value in assay [1] is recorded as 3.05. “SEQ ID NO: 48: VKKX tag, amino acid sequence VKKTKTKTKK (VKKX Tag)”: the “Biosynthesis amount of fusion protein” value in assay [1] is 10.47; in assay [2], 36.08. Regarding “SEQ ID NO: 46: VKKX tag, amino acid sequence VKKTKTKKTK (VKKX Tag)”, the results for the “Biosynthesis amount of fusion protein” value in assay [1] and in assay [2] were 9.94 and 23.47, respectively.

Take “SEQ ID NO: 44: VKKX tag, amino acid sequence VKKTKTTKT (VKKX Tag)”: the “Biosynthesis amount of fusion protein” value in assay [1] worked out at 7.83; in assay [2] it was 7.18. The corresponding values for “SEQ ID NO: 40: VKKX tag, amino acid sequence VKKTKTKDK (VKKX Tag)” are 8.49 and 10.77. For “SEQ ID NO: 23: VKKX tag, amino acid sequence VKKY (VKKX Tag)”, the “Biosynthesis amount of fusion protein” value in assay [1] was 3.30. In the case of “SEQ ID NO: 21: VKKX tag, amino acid sequence VKKC (VKKX Tag)”, the “Biosynthesis amount of fusion protein” value in assay [1] is on record as 3.14. Consider “SEQ ID NO: 35: VKKX tag, amino acid sequence VKKTKTDD (VKKX Tag)”, for which the “Biosynthesis amount of fusion protein” value is recorded as 5.75 in assay [1] and 8.49 in assay [2]. Consider “SEQ ID NO: 42: VKKX tag, amino acid sequence VKKTKTKDD (VKKX Tag)”, for which the “Biosynthesis amount of fusion protein” value in assay [1] is 5.35; in assay [2], 14.95.

For the substance “SEQ ID NO: 26: VKKX tag, amino acid sequence VKKF (VKKX Tag)”, the “Biosynthesis amount of fusion protein” value in assay [1] is listed as 3.69. Regarding “SEQ ID NO: 13: VKKX tag, amino acid sequence VKKM (VKKX Tag)”, in assay [1], the “Biosynthesis amount of fusion protein” value stood at 1.94. Regarding “SEQ ID NO: 29: VKKX tag, amino acid sequence VKKTKTD (VKKX Tag)”, the “Biosynthesis amount of fusion protein” value in assay [1] is recorded as 6.09; in assay [2], 15.90. On to “SEQ ID NO: 10: VKKX tag, amino acid sequence VKKR (VKKX Tag)”, for which the “Biosynthesis amount of fusion protein” value in assay [1] is 5.75. The same measure, in the same setting: under “SEQ ID NO: 9: VKKX tag, amino acid sequence VKKT (VKKX Tag)” stands 5.66. In the case of “SEQ ID NO: 28: VKKX tag, amino acid sequence VKKTKTT (VKKX Tag)”, the figures for the “Biosynthesis amount of fusion protein” value in assay [1] and in assay [2] were 6.28 and 16.65, respectively.

As to “SEQ ID NO: 24: VKKX tag, amino acid sequence VKKQ (VKKX Tag)”, the “Biosynthesis amount of fusion protein” value in assay [1] is listed as 3.52. The same measure, in the same setting: under “SEQ ID NO: 17: VKKX tag, amino acid sequence VKKV (VKKX Tag)” stands 2.90; under “SEQ ID NO: 22: VKKX tag, amino acid sequence VKKN (VKKX Tag)”, 3.17; under “SEQ ID NO: 8: VKKX tag, amino acid sequence VKKK (VKKX Tag)”, 6.15. For “SEQ ID NO: 31: VKKX tag, amino acid sequence VKKTKTKT (VKKX Tag)”, the “Biosynthesis amount of fusion protein” value turned out to be 9.08 in assay [1] and 15.48 in assay [2]. As to “SEQ ID NO: 14: VKKX tag, amino acid sequence VKKP (VKKX Tag)”, the “Biosynthesis amount of fusion protein” value in assay [1] came out at 2.23. Still for that read-out and setting: under “SEQ ID NO: 12: VKKX tag, amino acid sequence VKKH (VKKX Tag)” stands 5.82; under “SEQ ID NO: 11: VKKX tag, amino acid sequence VKKS (VKKX Tag)”, 6.05; under “SEQ ID NO: 18: VKKX tag, amino acid sequence VKKE (VKKX Tag)”, 2.94. The same measure, in the same setting: under “SEQ ID NO: 25: VKKX tag, amino acid sequence VKKW (VKKX Tag)” stands 3.52; under “SEQ ID NO: 19: VKKX tag, amino acid sequence VKKA (VKKX Tag)”, 3.01; under “SEQ ID NO: 15: VKKX tag, amino acid sequence VKKG (VKKX Tag)”, 2.39.
